Results from patent US20230263729A1, “POLY(ETHYLENE GLYCOL)-BLOCK-POLY(PROPYLENE SULFIDE) NANOCARRIER PLATFORM FOR ENHANCED EFFICACY OF IMMUNOSUPPRESSIVE AGENTS” (Northwestern University, priority 2019, published 2023).
Converted amounts (≈) assume the structure as drawn. Like-named read-outs stand apart in the source and are kept apart here.

Legend:
RAW 264.7 cells [1] = experiment: Apoptosis of RAW 264.7 cells with or without LPS; format: cell-based; conditions: 1 μg/mL celastrol, 4 h
Experimental: Celastrol has been investigated as a potential anti-cancer therapeutic due to its ability to induce cell death, and potentially binds to a number of proteins involved in apoptosis. As the manner of cell death can influence the downstream immune response, the onset of apoptosis upon treatment with celastrol was evaluated. Since NF-κB signalling in RAW 264.7 cells results in the secretion of TNF-α (FIG. 27C), an inducer of apoptosis in some contexts as well as cell survival and proliferation in others, the effect of the presence or absence of LPS during celastrol treatment on the induction of apoptosis or necrosis was assessed.

[2] = in vivo; cited from earlier work
NF-κB = NF-κB inhibition assay in RAW Blue cells (SEAP reporter); format: cell-based; conditions: read-out: half maximal effective concentration (EC50), NF-κB inhibition
Experimental: Inhibition assays—NF-κB inhibition by celastrol was assayed using RAW Blue cells (Invivogen), a stably transfected cell line derived from RAW 264.7 macrophage-like cells, which contain the gene for secreted alkaline phosphatase (SEAP) downstream of the NF-κB promoter. Cells were seeded into a 96 well plate at 50,000 cells per well. NF-κB signalling was induced using 100 ng/mL LPS, with celastrol-loaded micelles and free celastrol (0.1% THF in 1×PBS vehicle) added to the cells concurrent with LPS administration. All micelle formulations contained the same amount of polymer (15 mg/mL) but were loaded with variable amounts of celastrol, and free celastrol formulations were prepared to match the concentration of loaded celastrol within Cel-MC formulations. Free celastrol formulation were made by diluting celastrol stock solutions in THF with 1×PBS to reach the appropriate celastrol concentration and 0.1% THF in 1×PBS. Cells were incubated for 16 hours, as per assay instructions, before supernatant was collected for quantification of SEAP activity, as described by the manufacturer. Colorimetric quantification of SEAP activity was performed on an M3 plate reader (SpectraMax) at an absorbance wavelength of 630 nm.

RAW 264.7 cells [3] = experiment: Cytotoxicity assay (calcein-AM / ethidium homodimer); format: cell-based
Experimental: Cytotoxicity assays—RAW 264.7 cells were plated into a 96 well black wall plates at 50,000 cells per well. Cells were then treated with Cel-MC or free celastrol, formulated as described above for the inhibition assays. After 16 h of incubation with free celastrol or Cel-MC formulations, cells were washed and incubated with 4 μM calcein-AM and 2 μM ethidium homodimer (Thermo Fisher), as described by the manufacturer. Readings were performed on an M3 plate reader, at excitation/emission wavelengths of 488/530 nm and 488/635 nm for calcein and ethidium homodimer, respectively. Readings were normalized as described by the manufacturer, accounting for background fluorescence and setting 100% viability for untreated cells and 0% viability for cells incubated with 100% methanol for 15 minutes.

[4] = Celastrol quantification by HPLC: solubility, encapsulation efficiency, loading capacity, release; format: physicochemical
Experimental: Celastrol quantification—Celastrol solubility, encapsulation efficiency, and loading capacity were all assessed using high performance liquid chromatography (HPLC) using a Thermo Scientific C18 reverse phase column, with dimethylformamide (DMF) as the mobile phase at 0.5 mL/min. Area under the curve quantification of celastrol absorbance at 280 nm was performed using Thermo Fisher Chromeleon 7 software. A celastrol standard curve was constructed, with good linearity between celastrol concentrations of 2 mg/mL to 12.5 μg/mL, with 6.25 μg/mL being too close to the limit of detection for inclusion in the standard curve.
To determine the loading capacity of celastrol in micelles, defined here as the highest achievable mass of celastrol that can be stably loaded into 1 mg of micelles in 100 μL of 1×PBS, 1 mg of celastrol was added to 1 mg of PEG45-b-PPS20-Benzyl polymer in 500 uL THF in an HPLC vial. THF was removed by vacuum desiccation and micelles were formed via thin film rehydration with 100 μL of 1×PBS. […] Both samples (column filtered and unfiltered) were then lyophilized and redissolved in 200 μL DMF and celastrol content was quantified via HPLC.
To determine the encapsulation efficiency of celastrol in micelles, defined as the percentage of the originally added celastrol mass that is stably encapsulated in micelles after filtration to remove unencapsulated celastrol, micelles were formed as described above with variable amounts of celastrol, and were filtered using an LH-20 column. Filtered micelles were lyophilized and redissolved in 200 μL DMF and celastrol content was quantified via HPLC.
To determine the solubility of celastrol in aqueous buffer, 1 mg of celastrol was added to a glass vial along with 10 mL of 1×PBS. […] The lyophilized powder was resuspended in 200 μL DMF and celastrol was quantified via HPLC.
Celastrol release from micelles into 1×PBS with or without oxidative trigger was determined as follows. […] Absorbance at 424 nm, an absorbance peak for celastrol, were taken using a SpectraMax M3 plate reader using a 96-well plate.

BMDCs = experiment: BMDC activation and maturation in vitro (surface markers, IL12p70 ELISA); format: cell-based, C57BL/6 mice; conditions: aVD 10^−8 M; LPS and IFN-γ stimulation
Experimental: Assessment of BMDC activation and maturation in vitro—BMDCs were cultured at a density of 1×10^6/ml and were incubated at 37° C. with 5% CO2 for 10 days. Free aVD, aVD-loaded PS (PS-aVD) or aVD-loaded P-D2-PEG5-PS (P-D2-PEG5-PS-aVD) with the aVD concentration of 10^−8 M were added when the media was refreshed on days 3 and 6. On day 7, 10 ng/ml murine recombinant interferon (IFN-γ) and 1 μg/ml LPS were added to stimulate dendritic cell maturation. At day 10, BMDCs were collected, washed with PBS and then incubated with anti-mouse CD16/CD32 to block FcRs and Zombie Aqua fixable viability dye to determine live/dead cells for 20 min. Cells were washed with PBS and stained with antibody cocktail (CD11c, […] CD80, and CD86) (Table 1) for 35 min at 4° C. BMDC maturation was determined by characterizing the cell surface marker expression using FACSDiva on a LSRII flow cytometer (BD Biosciences). Over 20,000 events were recorded for each sample and data were analyzed with FlowJo software. Different concentrations of P-D2-PEG5-PS-aVD (aVD concentration=0, 10^−9, and 10^−8 M) were also investigated on BMDC maturation using the same procedure described above. […] IL12p70 secretion in supernatant of the cell culture in the last 48 h were determined by enzyme-linked immunosorbent assay (ELISA) following the manufacturer's instructions (Fisher Thermo Scientific).

atherosclerotic lesions = experiment: Atherosclerotic lesion quantification and immunohistochemistry after 8 weeks treatment; format: in vivo, ApoE−/− mice; conditions: total aVD dose 800 ng over 8 weeks
Experimental: Treatment—Male ApoE^−/− mice at 8-weeks of age were fed a high-fat diet (HFD, Harlan Teklad TD.88137, 42% kcal from fat) for 4 weeks. Treatments were performed from week 12 and 100 μl of different treatments: 1, PBS (control); 2, free aVD (1 μg/ml); 3, PS-aVD; 4, P-D2-PEG5-PS-aVD; 5, P210/P-D2-PEG5-PS-aVD (2, 3, 4, 5 groups with the same aVD concentration of 1 μg/ml) were subsequently i.v. administrated every week for 8 weeks. During those weeks, mice were maintained on a high-fat diet, and the activities and body weight was monitored. In vivo experiments were performed with group sizes of N=5-6 mice per group and then independently repeated for a total of N=10-12 mice per group.
Atherosclerotic lesion quantification and immunohistochemistry—For atherosclerotic lesion analysis, mice were anesthetized and aortas were carefully harvested after perfusion with PBS under a microscope. The heart with ascending aorta was fixed with 4% paraformaldehyde (PFA)/5% sucrose in PBS solution 12 h at 4° C. […] For quantitative analysis of atherosclerotic lesions, 5-7 separate cross-sections from each mouse were stained with Oil Red 0 (ORO) (Sigma) for 1 h at 37° C. and 4′,6-diamidino-2-phenylindole (DAPI) for 5 min. […] An in-house software written in Python was developed for automated and quantitative image analysis (FIG. 16) […]

atherosclerotic plaque = conditions: orally to mice, total dose 4800 ng over 12 weeks; cited from earlier work

CC1=C(O)C(=O)C=C2C1=CC=C1[C@@]2(C)CC[C@@]2(C)[C@@H]3C[C@](C)(C(=O)O)CC[C@]3(C)CC[C@]12C [celastrol]
apoptotic cells (RAW 264.7 cells [1]; in the absence of LPS): 16.5±1.8%
apoptotic cells (RAW 264.7 cells [1]; in the presence of LPS): 37.5±4.4%
serum half-life (T1/2β) [2]: 8 to 10 h
EC50 (NF-κB; 100 ng/mL LPS, 16 hours): 0.2 µg/mL (≈ 0.444 µM)
EC50 (NF-κB; LPS): 0.2 µg/mL (≈ 0.444 µM)
cell viability as the dosage of celastrol is decreased (RAW 264.7 cells [3]): not
cytotoxicity to RAW 264.7 cells (RAW 264.7 cells [3]; 0.8 mg/mL celastrol): highly cytotoxic
theoretical solubility in nanocarriers, times higher than unencapsulated celastrol [4]: over 10,000 times
theoretical celastrol ‘solubility’ in 1×PBS when loaded in PEG-b-PPS nanocarriers ([4]; 200 mg/mL of polymer, loading capacity 22%): 44000 µg/mL
solubility at 1 h ([4]; aqueous buffer, thermodynamic from solid, detected in 1 mL of 1×PBS at 37 C, read-out: celastrol dissolved in aqueous buffer (solubility)): 3.5 µg/mL (≈ 7.77 µM)

C=C1/C(=C\C=C2/CCC[C@]3(C)[C@@H]([C@H](C)CCCC(C)(C)O)CC[C@@H]23)C[C@@H](O)C[C@@H]1O [aVD, 1, 25-Dihydroxyvitamin D3]
expression of MHC-II, CD80 and CD86 by stimulated BMDCs (BMDCs): significantly decreased expression
improvements in plaque area and macrophage content at the same dosage (atherosclerotic lesions): no
decrease in plaque area (atherosclerotic plaque): 39%
reduction in macrophage accumulation (atherosclerotic plaque): 29%
